Source: ChEMBL document CHEMBL1201862, “PubChem BioAssay data set” (2004)
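Five concentrations, 48 hours, 96-well plates. Here, GI50 denotes the concentration required for 50% inhibition of growth.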 Active and inactive are the calls of the source. Cut-off read from the data, not from the text of the source: active = GI50 up to about 1.1 µM and inactive = higher.

Tests used:
Test in all cases: inhibition of tumour cell growth, NCI panel, 48 h
K562 = test system: K562
EKVX = test system: EKVX
U-251 = test system: U-251
HOP-62 = test system: HOP-62
OVCAR-8 = test system: OVCAR-8
BT-549 = test system: BT-549
COLO 205 = test system: COLO 205
MDA-MB-231 = test system: MDA-MB-231
T47D = test system: T47D
SK-MEL-2 = test system: SK-MEL-2
NCI-H23 = test system: NCI-H23
MOLT-4 = test system: MOLT-4
SK-MEL-28 = test system: SK-MEL-28
HCT-15 = test system: HCT-15
HCC 2998 = test system: HCC 2998
IGROV-1 = test system: IGROV-1
CAKI-1 = test system: CAKI-1
SW-620 = test system: SW-620
DU-145 = test system: DU-145
MDA-N = test system: MDA-N

SMILES | GI50 (K562) | GI50 (EKVX) | GI50 (U-251) | GI50 (HOP-62) | GI50 (OVCAR-8) | GI50 (BT-549) | GI50 (COLO 205) | GI50 (MDA-MB-231) | GI50 (T47D) | GI50 (SK-MEL-2) | GI50 (NCI-H23) | GI50 (MOLT-4) | GI50 (SK-MEL-28) | GI50 (HCT-15) | GI50 (HCC 2998) | GI50 (IGROV-1) | GI50 (CAKI-1) | GI50 (SW-620) | GI50 (DU-145) | GI50 (MDA-N)
COC(=O)CCC(C)[C@H]1CCC2C3C(C[C@H](OC(C)=O)[C@@]21C)[C@@]1(C)CCC2(C[C@H]1C[C@H]3OC(C)=O)OOC1(CCC(C(C)(C)C)CC1)OO2 (some centres not stated) | 8.69 µM (inactive) | 4.12 µM (inactive) | 6.73 µM (inactive) | 9.73 µM (inactive) | 12.4 µM (inactive) | 33.3 µM (inactive) | > 100 µM (inactive) | 46.3 µM (inactive) | 5.71 µM (inactive) | > 100 µM (inactive) | 9.42 µM (inactive) | 7.52 µM (inactive) | > 100 µM (inactive) | 50 µM | 46.3 µM (inactive) | 17.1 µM (inactive) | 12.8 µM (inactive) | 12.3 µM (inactive) | > 100 µM (inactive) | 
COC(=O)c1csc(-c2nc(CCNC(=O)OC(C)(C)C)sc2Br)n1 | > 100 µM (inactive) | > 100 µM (inactive) | > 100 µM (inactive) | > 100 µM (inactive) | > 100 µM (inactive) | > 100 µM (inactive) | > 100 µM (inactive) |  |  |  | > 100 µM (inactive) | > 100 µM (inactive) | > 100 µM (inactive) | > 100 µM | > 100 µM (inactive) | > 100 µM (inactive) |  | > 100 µM (inactive) | > 100 µM (inactive) | > 100 µM (inactive)
COc1cccc(NC(=O)CC(=O)Nc2cccc(OC)c2)c1 | > 100 µM (inactive) | > 100 µM (inactive) | > 100 µM (inactive) | > 100 µM (inactive) | > 100 µM (inactive) | > 100 µM (inactive) | > 100 µM (inactive) | > 100 µM (inactive) |  | > 100 µM (inactive) | > 100 µM (inactive) | > 100 µM (inactive) | > 100 µM (inactive) | > 100 µM | > 100 µM (inactive) | > 100 µM (inactive) | > 100 µM (inactive) | > 100 µM (inactive) | > 100 µM (inactive) | > 100 µM (inactive)
COc1ccccc1C#C/C=C\C#Cc1ccccc1C#N | 3.68 µM (inactive) | 5.94 µM (inactive) | 9.18 µM (inactive) | 14.5 µM (inactive) | 5.35 µM (inactive) |  | 13.3 µM (inactive) |  | 5.86 µM (inactive) | 14.9 µM (inactive) | 5.61 µM (inactive) | 0.268 µM (active) | 34.2 µM (inactive) | 6.93 µM | 6.19 µM (inactive) | 10.4 µM (inactive) | 3.72 µM (inactive) | 6.32 µM (inactive) | 20 µM (inactive) | 
CC1NOC(NS(=O)(=O)c2ccc(/N=N/c3c(O)c(C(=O)O)cc4ccccc34)cc2)C1C (configuration not stated) | > 100 µM (inactive) | > 100 µM (inactive) | > 100 µM (inactive) | > 100 µM (inactive) | > 100 µM (inactive) | > 100 µM (inactive) | > 100 µM (inactive) | > 100 µM (inactive) |  | > 100 µM (inactive) |  | > 100 µM (inactive) | > 100 µM (inactive) | > 100 µM | > 100 µM (inactive) | > 100 µM (inactive) | > 100 µM (inactive) | > 100 µM (inactive) |  | 
C[Si](C)(C)/C=C/CN1C(=O)CCC1O (configuration not stated) | > 100 µM (inactive) | > 100 µM (inactive) | > 100 µM (inactive) | > 100 µM (inactive) | > 100 µM (inactive) |  | > 100 µM (inactive) |  |  | > 100 µM (inactive) | > 100 µM (inactive) | > 100 µM (inactive) | > 100 µM (inactive) | > 100 µM | > 100 µM (inactive) | > 100 µM (inactive) | > 100 µM (inactive) | > 100 µM (inactive) |  | 
O=C(CSc1nc2ccc(I)cc2c(=O)n1Cc1ccccc1)Nc1ccc(Br)cc1 | 24.7 µM (inactive) | 12.9 µM (inactive) | 39 µM (inactive) | 78.2 µM (inactive) | 13.4 µM (inactive) | 37.1 µM (inactive) | 59.4 µM (inactive) | 17.2 µM (inactive) | 97.9 µM (inactive) | 64.1 µM (inactive) | > 100 µM (inactive) | > 100 µM (inactive) | 49.4 µM (inactive) | 36 µM |  | 29.2 µM (inactive) | 1.35 µM (inactive) | 97.5 µM (inactive) | 70.5 µM (inactive) | 
Cc1coc2c1[C@@H](O)[C@@]1(C)[C@H](CCC[C@@H]1C)C2 | 26.9 µM (inactive) | 69 µM (inactive) |  | 40.5 µM (inactive) | 22.4 µM (inactive) |  | 22.6 µM (inactive) | 27.2 µM (inactive) | 31.4 µM (inactive) |  | 50.9 µM (inactive) | 24.8 µM (inactive) | 48.2 µM (inactive) | 23.8 µM | 42.4 µM (inactive) | 54.6 µM (inactive) | 72.6 µM (inactive) | 37.8 µM (inactive) | 37 µM (inactive) | 20.7 µM (inactive)
c1cc2sc1CSCCSCCSC2 | > 100 µM (inactive) | > 100 µM (inactive) | > 100 µM (inactive) | > 100 µM (inactive) | > 100 µM (inactive) | > 100 µM (inactive) | > 100 µM (inactive) | > 100 µM (inactive) | > 100 µM (inactive) |  | > 100 µM (inactive) | > 100 µM (inactive) | > 100 µM (inactive) | > 100 µM | > 100 µM (inactive) | > 100 µM (inactive) |  | > 100 µM (inactive) | > 100 µM (inactive) | 
CCOC(CN=C=S)OCC | 7.01 µM (inactive) | > 10 µM (inactive) | > 10 µM (inactive) | > 10 µM (inactive) | > 10 µM (inactive) |  | > 10 µM (inactive) | > 10 µM (inactive) | > 10 µM (inactive) | > 10 µM (inactive) | > 10 µM (inactive) | > 10 µM (inactive) | > 10 µM (inactive) | > 10 µM | > 10 µM (inactive) | > 10 µM (inactive) | > 10 µM (inactive) | > 10 µM (inactive) | > 10 µM (inactive) | > 10 µM (inactive)
COc1ccc(OC)c(/C=C2/C(=O)N/C(=N\C(C)=O)N2C)c1 |  | > 100 µM (inactive) | > 100 µM (inactive) | > 100 µM (inactive) | > 100 µM (inactive) | > 100 µM (inactive) | > 100 µM (inactive) | > 100 µM (inactive) |  | > 100 µM (inactive) | > 100 µM (inactive) | > 100 µM (inactive) | > 100 µM (inactive) | > 100 µM | > 100 µM (inactive) | > 100 µM (inactive) | > 100 µM (inactive) | > 100 µM (inactive) | > 100 µM (inactive) | > 100 µM (inactive)
CCN1C(=O)/C(=C\Nc2ccccc2)S/C1=N/Nc1ncc(CC(=O)Nc2ccccc2C)s1 | 43.6 µM (inactive) | > 100 µM (inactive) | 60.5 µM (inactive) | > 100 µM (inactive) | 71.6 µM (inactive) |  | > 100 µM (inactive) | > 100 µM (inactive) | 45.3 µM (inactive) | > 100 µM (inactive) | > 100 µM (inactive) | 51.5 µM (inactive) | > 100 µM (inactive) | > 100 µM | 91 µM (inactive) | > 100 µM (inactive) | > 100 µM (inactive) | > 100 µM (inactive) | > 100 µM (inactive) | > 100 µM (inactive)
C/C=C\C(CC(=O)O)CC(=O)NCCC1CN(S(=O)(=O)C(F)(F)F)c2ccccc21 (configuration not stated) | > 100 µM (inactive) | > 100 µM (inactive) | > 100 µM (inactive) | > 100 µM (inactive) | > 100 µM (inactive) | > 100 µM (inactive) | > 100 µM (inactive) | > 100 µM (inactive) |  | > 100 µM (inactive) | > 100 µM (inactive) | > 100 µM (inactive) | > 100 µM (inactive) | > 100 µM | > 100 µM (inactive) | > 100 µM (inactive) | > 100 µM (inactive) | > 100 µM (inactive) | > 100 µM (inactive) | > 100 µM (inactive)
CC1(C)C(O)C[C@]23CCC[C@](C)(C[C@@H](O)C12)C3 (some centres not stated) | > 100 µM (inactive) | > 100 µM (inactive) | > 100 µM (inactive) | > 100 µM (inactive) | > 100 µM (inactive) | > 100 µM (inactive) | > 100 µM (inactive) |  |  | > 100 µM (inactive) | > 100 µM (inactive) | > 100 µM (inactive) | > 100 µM (inactive) | > 100 µM |  | > 100 µM (inactive) | > 100 µM (inactive) | > 100 µM (inactive) |  | 
CC(=O)C1C(=O)C(=O)N(c2ccc([N+](=O)[O-])cc2Cl)C1=O (configuration not stated) |  | > 100 µM (inactive) | > 100 µM (inactive) | > 100 µM (inactive) | > 100 µM (inactive) | > 100 µM (inactive) | > 100 µM (inactive) | > 100 µM (inactive) |  | > 100 µM (inactive) | > 100 µM (inactive) | 45.6 µM (inactive) | > 100 µM (inactive) | > 100 µM | > 100 µM (inactive) | > 100 µM (inactive) | > 100 µM (inactive) | > 100 µM (inactive) | > 100 µM (inactive) | > 100 µM (inactive)
O=[N+]([O-])c1nccn1CC1OC(n2ccnc2[N+](=O)[O-])C(O)C(O)C1O (configuration not stated) | > 100 µM (inactive) | > 100 µM (inactive) | > 100 µM (inactive) | > 100 µM (inactive) | > 100 µM (inactive) | > 100 µM (inactive) | > 100 µM (inactive) |  | 23.9 µM (inactive) | > 100 µM (inactive) | > 100 µM (inactive) | > 100 µM (inactive) | > 100 µM (inactive) |  | > 100 µM (inactive) |  |  | > 100 µM (inactive) |  | > 100 µM (inactive)
